Values quoted from earlier work as cited in US9248110B2, “Compositions and methods of treating and preventing lung cancer and lymphangioleiomyomatosis” (priority 2010, dated 2016).
Where two headings read alike, the source gives them in different places.

Test system: Lewis lung LLC1 cells
Conditions: orally administered

CN(C)C(=N)N=C(N)N [metformin]
tumor growth (mice fed a high-energy diet): reduce tumor growth
tumor growth (mice on a control diet): no effect on tumor growth
